The record followed here is ChEMBL document CHEMBL3856182, “How much successful are the medicinal chemists in modulation of SIRT1: A critical review” (Eur J Med Chem, 2016).

The target of experiment [1] is T1, NAD-dependent protein deacetylase sirtuin-1 (Homo sapiens, UniProt Q96EB6).
T1 sequence (Q96EB6 whole entry): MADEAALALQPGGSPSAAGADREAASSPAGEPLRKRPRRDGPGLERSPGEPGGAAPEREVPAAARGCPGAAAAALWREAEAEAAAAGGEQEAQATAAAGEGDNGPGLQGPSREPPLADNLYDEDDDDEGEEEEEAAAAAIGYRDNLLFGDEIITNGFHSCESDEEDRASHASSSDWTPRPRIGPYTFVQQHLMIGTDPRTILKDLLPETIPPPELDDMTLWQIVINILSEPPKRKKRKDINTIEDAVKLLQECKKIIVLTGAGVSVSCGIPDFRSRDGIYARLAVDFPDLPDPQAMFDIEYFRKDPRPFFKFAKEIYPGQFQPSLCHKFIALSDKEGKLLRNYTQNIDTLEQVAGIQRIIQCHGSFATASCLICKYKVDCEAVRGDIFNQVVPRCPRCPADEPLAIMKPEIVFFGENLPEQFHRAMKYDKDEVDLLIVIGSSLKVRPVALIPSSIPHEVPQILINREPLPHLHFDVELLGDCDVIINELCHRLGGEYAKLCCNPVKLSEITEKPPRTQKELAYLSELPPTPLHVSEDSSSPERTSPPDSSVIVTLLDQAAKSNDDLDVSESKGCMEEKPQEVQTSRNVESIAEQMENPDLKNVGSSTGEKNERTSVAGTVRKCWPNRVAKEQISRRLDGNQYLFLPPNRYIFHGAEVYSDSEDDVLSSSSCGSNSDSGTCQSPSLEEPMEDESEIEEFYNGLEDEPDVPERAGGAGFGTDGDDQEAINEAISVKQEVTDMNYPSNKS
Description: Inhibition of recombinant human SIRT1 assessed as deacetylation activity using fluorescent substrate in presence of NAD+ by fluorescence analysis.

The target of experiment [2] is T2, NAD-dependent protein deacetylase sirtuin-2 (Homo sapiens, UniProt Q8IXJ6).
T2 sequence (Q8IXJ6 whole entry): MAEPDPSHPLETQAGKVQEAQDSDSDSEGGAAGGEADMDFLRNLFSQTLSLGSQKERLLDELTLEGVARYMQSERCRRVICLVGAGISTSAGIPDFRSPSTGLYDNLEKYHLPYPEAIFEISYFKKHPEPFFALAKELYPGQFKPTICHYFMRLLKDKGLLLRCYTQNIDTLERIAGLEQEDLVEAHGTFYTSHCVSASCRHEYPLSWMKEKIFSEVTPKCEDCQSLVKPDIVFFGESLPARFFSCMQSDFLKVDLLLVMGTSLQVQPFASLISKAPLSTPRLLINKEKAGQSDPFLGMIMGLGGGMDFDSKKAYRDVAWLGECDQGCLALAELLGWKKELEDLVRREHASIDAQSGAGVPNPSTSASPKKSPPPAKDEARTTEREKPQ
The experiment is described as follows: Inhibition of recombinant human SIRT2 assessed as deacetylation activity using fluorescent substrate in presence of NAD+ by fluorescence analysis.

Experiment [3] concerns the target T2, NAD-dependent protein deacetylase sirtuin-2. The experiment is described as follows: Noncompetitive inhibition of human SIRT2 assessed as deacetylation activity using fluorescent substrate in presence of NAD+ by Lineweaver-Burk plot analysis.
Experiment [4] has the same target. Description: Competitive inhibition of human SIRT2 assessed as deacetylation activity using fluorescent peptide substrate in presence of NAD+ by Lineweaver-Burk plot analysis.

Take `O=C(/C=C/c1ccc(O)c(O)c1)NC(Cc1c[nH]c2ccccc12)C(=O)O` (centres undefined): the IC50 worked out at 34 µM in experiment [1] and 8.7 µM in experiment [2]. Further, the values for the inhibition constant Ki in experiment [3] and in experiment [4] were 9.8 µM and 5.3 µM, respectively.
